From patent US8163909B2, “Substituted hydroxyethyl amine compounds as beta-secretase modulators and methods of use” (Amgen Inc., priority 2007, dated 2012)
Read-outs that look alike come from different tables or passages of the source.

Legend:
[1] = target: Beta Secretase enzyme (BACE) (Homo sapiens, UniProt P56817); assay: In vitro enzymatic BACE FRET (fluorescence resonance energy transfer) assay; assay type: biochemical;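 note: fluorescence read after 1 h with 50 nM quenched peptide substrate spanning the BACE cleavage site, in pH 4.2 acetate buffer containing 10% DMSO and nonionic detergent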
Beta Secretase enzyme (BACE), sequence (P56817 46-501): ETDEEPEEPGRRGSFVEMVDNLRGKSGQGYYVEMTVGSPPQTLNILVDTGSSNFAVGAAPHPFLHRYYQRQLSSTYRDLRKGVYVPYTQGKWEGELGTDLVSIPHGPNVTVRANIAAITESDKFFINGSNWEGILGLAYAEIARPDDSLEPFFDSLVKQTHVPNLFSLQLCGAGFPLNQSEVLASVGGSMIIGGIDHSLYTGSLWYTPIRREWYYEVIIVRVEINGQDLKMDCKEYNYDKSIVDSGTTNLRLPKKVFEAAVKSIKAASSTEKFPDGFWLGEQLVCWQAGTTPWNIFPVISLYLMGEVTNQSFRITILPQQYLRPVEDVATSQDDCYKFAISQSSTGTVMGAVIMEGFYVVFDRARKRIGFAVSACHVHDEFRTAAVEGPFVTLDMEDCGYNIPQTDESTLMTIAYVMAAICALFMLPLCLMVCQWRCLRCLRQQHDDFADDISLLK

[2] = Microsomal stability assay, rat liver microsomes;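 note: rat liver microsomes (0.25 mg/mL) with about 1 µM compound plus 1 mM NADPH, pH 7.4, 37 °C for 30 min, parent left measured by LC-MS/MS against 0 min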
CYP3A4 (CYP3A) = CYP3A4 (CYP3A) (Homo sapiens, UniProt P08684); assay: in vitro; details: microsomes, pH 7.4;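 note: inhibition of CYP3A-mediated 1-hydroxymidazolam formation after 10 min incubation with NADPH, quantified by HPLC MS relative to metabolite produced without test compound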
CYP3A4 (CYP3A), sequence (P08684 2-503): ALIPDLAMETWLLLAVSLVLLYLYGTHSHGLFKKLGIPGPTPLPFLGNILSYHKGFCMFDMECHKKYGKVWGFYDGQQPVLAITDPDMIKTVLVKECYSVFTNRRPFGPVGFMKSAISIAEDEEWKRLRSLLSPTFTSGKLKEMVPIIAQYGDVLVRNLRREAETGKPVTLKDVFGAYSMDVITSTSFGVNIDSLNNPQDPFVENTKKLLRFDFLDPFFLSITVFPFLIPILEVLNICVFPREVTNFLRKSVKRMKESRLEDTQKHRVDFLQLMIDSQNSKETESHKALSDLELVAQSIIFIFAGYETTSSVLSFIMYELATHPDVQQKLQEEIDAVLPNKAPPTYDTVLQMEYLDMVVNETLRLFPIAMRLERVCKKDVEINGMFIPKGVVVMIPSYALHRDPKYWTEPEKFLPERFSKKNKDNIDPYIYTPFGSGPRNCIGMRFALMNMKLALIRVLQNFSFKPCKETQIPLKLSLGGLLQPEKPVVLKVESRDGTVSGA

[3] = Microsomal stability assay, human liver microsomes;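 note: pooled human liver microsomes at 0.25 mg/mL with 1 µM compound and NADPH at 37 °C, pH 7.4, for 30 min, unchanged parent quantified by LC-MS/MS against the 0 min sample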
[4] = system: Aβ40 in conditioned medium of cells stably expressing Amyloid Precursor Protein (APP); assay: In vitro BACE cell-based assay (Aβ40 in conditioned medium, sandwich ELISA); details: Homo sapiens;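 note: compounds added as a dilution series, secreted peptide quantified by europium time-resolved fluorescence readout, potency fitted from percent of control versus compound concentration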
CYP2D6 = CYP2D6 (Homo sapiens, UniProt P10635); assay: CYP2D6 inhibition assay (bufuralol, pooled human liver microsomes)
CYP2D6, sequence (P10635 whole entry): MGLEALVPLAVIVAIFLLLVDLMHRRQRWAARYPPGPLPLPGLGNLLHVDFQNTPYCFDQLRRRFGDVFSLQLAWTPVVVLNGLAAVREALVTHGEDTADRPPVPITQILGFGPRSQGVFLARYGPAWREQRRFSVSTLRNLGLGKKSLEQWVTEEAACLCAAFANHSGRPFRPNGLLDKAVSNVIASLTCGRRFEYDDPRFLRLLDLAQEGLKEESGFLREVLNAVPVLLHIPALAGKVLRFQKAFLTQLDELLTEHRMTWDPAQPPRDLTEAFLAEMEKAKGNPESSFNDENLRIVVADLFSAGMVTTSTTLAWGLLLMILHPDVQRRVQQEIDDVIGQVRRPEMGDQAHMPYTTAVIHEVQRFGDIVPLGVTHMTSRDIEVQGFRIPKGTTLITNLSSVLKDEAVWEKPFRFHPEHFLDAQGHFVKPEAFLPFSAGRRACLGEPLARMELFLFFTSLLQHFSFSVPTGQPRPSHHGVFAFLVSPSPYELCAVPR

[5] = read-out: BACE1 FRET assay (IC50)
[6] = HEK293, HEK cells, read-out: HEK cell assay (IC50)
[7] = Table 2, read-out: BACE1 FRET assay
[8] = HEK293, Table 2, HEK cells, read-out: HEK cell assay
[9] = 2D6 IC50, CYP enzyme inhibition
[10] = BACE enzyme assay, read-out: BACE1 FRET assay
[11] = HEK293, HEK cells, read-out: HEK cell assay
[12] = 2D6 IC50 (uM), CYP enzyme inhibition
[13] = BACE enzyme assay IC50, read-out: BACE1 FRET assay
[14] = HEK293, HEK cell-based assay IC50, read-out: HEK cell assay
[15] = 2D6 IC50 (uM), CYP2D6 inhibition
[16] = BACE enzyme assay, IC50's in uM, read-out: BACE1 FRET assay
[17] = HEK293, HEK cell-based assay, IC50's in uM, read-out: HEK cell assay
[18] = HEK293, cell-based assay, HEK cells, IC50's in uM, read-out: HEK cell assay

Structure (SMILES) | RLM ([2]; rat liver microsomes) [µL/min/mg] | IC50 (CYP3A4 (CYP3A)) [nM] | HLM ([3]; human liver microsomes) [µL/min/mg] | RLM ([2]; rat liver microsomal data) [µL/min/mg] | HLM ([3]; human liver microsomal data) [µL/min/mg] | IC50 (CYP2D6; [12]) [µM] | also measured
CC(=O)N[C@@H](Cc1cccc(C#N)c1)[C@H](O)CN[C@H]1CC2(CCC2)Oc2c(-c3ccncc3)cc(CC(C)(C)C)cc21 [compound 637] | 105 | 100 | 34 |  |  |  | IC50 [1, 5]: 0.01 µM; IC50 [4, 6]: 0.004 µM; IC50 (CYP2D6; 2D6 IC50, CYP2D6 inhibition): 2.8 µM
CC(=O)N[C@@H](Cc1cc(F)cc(F)c1)[C@H](O)CN[C@H]1CC2(CCC2)Oc2c1cc(CC(C)(C)C)nc2-c1cncs1 [compound 481] |  | 200 |  | 177 | 155 |  | IC50 [1, 7]: 0.004 µM; IC50 [4, 8]: 0.123 µM; IC50 (CYP2D6; [9]): 7.9 µM
COCC(=O)N[C@@H](Cc1cc(F)cc(F)c1)[C@H](O)CN[C@H]1CC2(CCC2)Oc2c1cc(CC(C)(C)C)nc2-n1ccnc1 [compound 494] |  | 200 |  | 63 | 30 | 1.2 | IC50 [1, 10]: 0.02 µM; IC50 [4, 11]: 0.072 µM
CO[C@H](C)C(=O)N[C@@H](Cc1ccc2c(c1)OCO2)[C@H](O)CN[C@H]1CC2(CCC2)Oc2c1cc(CC(C)C)nc2-c1ccncc1 [compound 670] | 100 | ≤ 30 | 40 |  |  |  | IC50 [1, 13]: 0.06 µM; IC50 [4, 14]: 0.294 µM; IC50 (CYP2D6; [15]): 0.8 µM
COCC(=O)N[C@@H](Cc1cccc(Br)c1)[C@H](O)CN[C@H]1CC2(CCC2)Oc2ncc(CC(C)C)cc21 [compound 800] |  | 200 |  | 459 | 921 | 1.4 | IC50 [1, 16]: 0.004 µM; IC50 [4, 17]: 0.013 µM
CC(=O)N[C@@H](Cc1ccc(F)cc1)[C@H](O)CN[C@H]1CC2(CCNC2)Oc2cnc(CC(C)(C)C)cc21 (stereo partly drawn) [compound 702] | 26 | 1800 | 14 |  |  |  | IC50 [1, 13]: 36.4 µM; IC50 [4, 14]: 0.454 µM; IC50 (CYP2D6; [15]): 13.5 µM
CC(=O)N[C@@H](Cc1ccc(-c2cscn2)cc1)[C@H](O)CN[C@H]1CC2(CCC2)Oc2ncc(CC(C)(C)C)cc21 [compound 693] | 63 | 200 | 110 |  |  |  | IC50 [1, 13]: 0.043 µM; IC50 [4, 14]: 0.06 µM; IC50 (CYP2D6; [15]): 2.9 µM
COCC(=O)N[C@@H](Cc1cc(F)cc(F)c1)[C@H](O)CN[C@H]1CC2(CCC2)Oc2c1cc(C1CC1)cc2-n1ccnc1 [compound 706] | 33 | 100 | 41 |  |  |  | IC50 [1, 13]: 0.062 µM; IC50 [4, 14]: 0.02 µM; IC50 (CYP2D6; [15]): 0.3 µM
COCC(=O)N[C@@H](Cc1ccc(F)c(-c2cscn2)c1)[C@H](O)CN[C@H]1CC2(CCC2)Oc2ncc(CC(C)(C)C)cc21 [compound 683, N-((1S,2R)-3-(((4′S)-6′-(2,2-dimethylpropyl)-3′,4′-dihydrospiro[cyclobutane-1,2′-pyrano[2,3-b]pyridin]-4′-yl)amino)-1-(4-fluoro-3-(1,3-thiazol-4-yl)benzyl)-2-hydroxypropyl)-2-methoxyacetamide] | 61 | 200 | 102 |  |  |  | IC50 [1, 13]: 0.009 µM; IC50 [4, 14]: 0.031 µM; IC50 (CYP2D6; [15]): 2.3 µM
CO[C@H](C)C(=O)N[C@@H](Cc1cncs1)[C@H](O)CN[C@H]1CC2(CCC2)Oc2ncc([C@@H]3CC3(C)C)cc21 [compound 794] |  | 500 |  | 132 | 205 | 9.8 | IC50 [1, 16]: 0.005 µM; IC50 [4, 17]: 0.009 µM
COCC(=O)N[C@@H](Cc1cc(F)cc(-c2nccs2)c1)C(=O)CN[C@H]1CC2(CCC2)Oc2ncc(CC(C)C)cc21 [compound 918] |  | 100 |  | 128 | 116 |  | IC50 [1, 16]: 0.0164 µM; IC50 [4, 18]: > 10 µM; IC50 (CYP2D6; [9]): 0.5 µM
COCC(=O)N[C@@H](Cc1cccc(F)c1)[C@H](O)CN[C@H]1CC2(CCC2)Oc2c1cc(CC(C)C)cc2-n1ccnc1 [compound 520] |  | 100 |  | 144 | 32 | 0.9 | IC50 [1, 10]: 0.018 µM; IC50 [4, 11]: 0.009 µM
COCC(=O)N[C@@H](Cc1cccc(-n2cccn2)c1)[C@H](O)CN[C@H]1CC2(CCC2)Oc2ncc(CC(C)(C)C)cc21 [compound 854] |  | 600 |  | 210 | 515 |  | IC50 [1, 16]: 0.007 µM; IC50 [4, 18]: 0.007 µM; IC50 (CYP2D6; [9]): 2.5 µM
COCCC(=O)N[C@@H](Cc1cccc(-c2nccs2)c1)[C@H](O)CN[C@H]1CC2(CCC2)Oc2ncc(CC(C)(C)C)cc21 [compound 791] |  | 100 |  | 33 | 43 | 0.6 | IC50 [1, 16]: 0.009 µM; IC50 [4, 17]: 0.012 µM
COCC(=O)N[C@@H](Cc1cc(F)cc(-c2ncc(C)s2)c1)[C@H](O)CN[C@H]1CC2(CCC2)Oc2ncc(CC(C)C)cc21 [compound 732] | 399 | 200 | 551 |  |  |  | IC50 [1, 13]: 0.018 µM; IC50 [4, 14]: 0.083 µM; IC50 (CYP2D6; [15]): 2.5 µM
CC(=O)N[C@@H](Cc1cccc(-c2ccncc2)c1)[C@H](O)CN[C@H]1CC2(CCC2)Oc2ncc(CC(C)(C)C)cc21 [compound 616, N-((1S,2R)-3-(((4′S)-6′-(2,2-dimethylpropyl)-3′,4′-dihydrospiro[cyclobutane-1,2′-pyrano[2,3-b]pyridin]-4′-yl)amino)-2-hydroxy-1-(3-(4-pyridinyl)benzyl)propyl)acetamide] | 96 | 160 | 228 |  |  |  | IC50 [1, 5]: 0.017 µM; IC50 [4, 6]: 0.01 µM; IC50 (CYP2D6; 2D6 IC50, CYP2D6 inhibition): 0.3 µM
CC(C)(C)Cc1cnc2c(c1)[C@@H](NC[C@@H](O)[C@H](Cc1ccc(F)cc1)NC(=O)[C@H]1CN(Cc3ccccc3)CCO1)CC1(CCC1)O2 [compound 717] | 298 | 200 | 775 |  |  |  | IC50 [1, 13]: 0.013 µM; IC50 [4, 14]: 0.011 µM; IC50 (CYP2D6; [15]): 3.6 µM
CO[C@H](C)C(=O)N[C@@H](Cc1ccc(F)cc1)[C@H](O)CN[C@H]1CC2(CCC2)Oc2c1cc(CC(C)C)cc2-n1ccnc1 [compound 482] |  | 100 |  | 194 | 27 |  | IC50 [1, 7]: 0.15 µM; IC50 [4, 8]: 0.422 µM; IC50 (CYP2D6; [9]): 3.6 µM
COCC(=O)N[C@@H](Cc1cccc(F)c1)[C@H](O)CN[C@H]1CC2(CCC2)Oc2c(-c3cscn3)cc(CC(C)C)cc21 [compound 526] |  | 600 |  | 503 | 351 | 7.3 | IC50 [1, 10]: 0.006 µM; IC50 [4, 11]: 0.053 µM
COCC(=O)N[C@@H](Cc1ccc(F)cc1)[C@H](O)CN[C@H]1CC2(CCC2)Oc2c1cc(CC(C)(C)C)nc2-c1nccs1 [compound 451] |  | 600 |  | 682 | 248 |  | IC50 [1, 7]: 0.019 µM; IC50 [4, 8]: 0.271 µM; IC50 (CYP2D6; [9]): 9.4 µM
C#Cc1cccc(C[C@H](NC(=O)[C@@H](C)OC)[C@H](O)CN[C@H]2CC3(CCC3)Oc3ncc(CC(C)C)cc32)c1 [Example 777, (2R)-N-((1S,2R)-1-(3-ethynylbenzyl)-2-hydroxy-3-(((4′S)-6′-(2-methylpropyl)-3′,4′-dihydrospiro[cyclobutane-1,2′-pyrano[2,3-b]pyridin]-4′-yl)amino)propyl)-2-methoxypropanamide] |  | 100 |  | 38 | 29 | 2.1 | IC50 [1, 16]: 0.006 µM; IC50 [4, 17]: 0.013 µM
CO[C@H](C)C(=O)N[C@@H](Cc1cc(F)cc(-c2nccs2)c1)[C@H](O)CNC1CC2(CCC2)Oc2ncc(CC(C)(F)F)cc21 (stereo partly drawn) [compound 765, (2R)-N-((1S,2R)-3-((6′-(2,2-difluoropropyl)-3′,4′-dihydrospiro[cyclobutane-1,2′-pyrano[2,3-b]pyridin]-4′-yl)amino)-1-(3-fluoro-5-(1,3-thiazol-2-yl)benzyl)-2-hydroxypropyl)-2-methoxypropanamide] |  | 200 |  | 39 | 35 | 0.7 | IC50 [1, 16]: 0.021 µM; IC50 [4, 17]: 0.054 µM
COCC(=O)N[C@@H](Cc1cccc(F)c1)[C@H](O)CN[C@H]1CC2(CCC2)Oc2ccc(C[C@H](C)F)cc21 [compound 512] |  | 5700 |  | 829 | 614 | 0.5 | IC50 [1, 10]: 0.028 µM; IC50 [4, 11]: 0.061 µM
CNc1cc(CC(C)(C)C)cc2c1OC1(CCC1)C[C@@H]2NC[C@@H](O)[C@H](Cc1cc(F)cc(F)c1)NC(=O)COC [compound 479] |  | 1800 |  | 329 | 167 |  | IC50 [1, 7]: 0.011 µM; IC50 [4, 8]: 0.017 µM; IC50 (CYP2D6; [9]): 6.4 µM
CO[C@H](C)C(=O)N[C@@H](Cc1ccccc1)[C@H](O)CN[C@H]1CC2(CCC2)Oc2c1cc(CC(C)(C)C)nc2-c1ccncc1 [compound 543] |  | 100 |  | 242 | 41 | 2.6 | IC50 [1, 10]: 0.037 µM; IC50 [4, 11]: 0.255 µM
